In ChEMBL document CHEMBL1127107, “The affinity of the excised binding domain of FK-506 for the immunophilin FKBP12” (Bioorg Med Chem Lett, 1993):

Biological target: Peptidyl-prolyl cis-trans isomerase FKBP1A (Homo sapiens, UniProt P62942)
Test: The compound was evaluated for its affinity to the binding domain of immunophilin FK506 binding protein 12

Sequence of Peptidyl-prolyl cis-trans isomerase FKBP1A (P62942 whole entry, the tested form may be a part): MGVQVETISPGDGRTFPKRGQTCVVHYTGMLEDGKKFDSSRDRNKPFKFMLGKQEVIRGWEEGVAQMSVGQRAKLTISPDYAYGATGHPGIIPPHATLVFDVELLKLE

Kd: 10 nM
Compound: COC[C@H]1O[C@@](O)(C(=O)C(=O)N2CCCC[C@H]2C(=O)OC/C(C)=C/[C@@H]2CC[C@@H](O)[C@H](OC)C2)[C@H](C)C[C@@H]1OC
